{
  "source": "paper PMC5802278",
  "about": "“Molecular and cellular mechanisms of HIF prolyl hydroxylase inhibitors in clinical trials” (Chemical Science, 2017)",
  "key": {"Hep3b cells": {"system": "Hep3b cells", "assay": "Hep3b cell viability / cell density after prolonged treatment", "format": "cell-based, human", "protocol": "Cell seeding and inhibitor treatments were performed in parallel in the same manner as used for the HRE reporter assay (see above). Resazurin (Sigma, R7017) was used for detection of cell viability at a final concentration of 10μg/ml. Cells were incubated with Resazurin at 37°C\nHep3b cell viability after prolonged treatment of PHD inhibitors. Cell viability"}, "[1]": {"system": "HIF target genes in Hep3b cells", "assay": "RT-qPCR of HIF target genes", "format": "cell-based, human", "details": "24 hours, 2.5 or 10 μM", "method": "The upregulation of HIF-α isoforms has multiple downstream effects.[1],[30],[86],[87] To investigate whether the inhibitors have differential effects on HIF target genes we measured their mRNA levels for a set of HIF target genes after 24 hours in Hep3b cells. The panel aimed to cover a small, yet representative, HIF target gene set. […]. […]. page 16:\nCells were lysed using the TRI reagent® (Sigma T9424). RNA was then extracted by phase separation following the manufacturer’s protocol. Extracted RNA was treated with the RNase-free DNase I (DNA-free™ DNA Removal Kit, Applied Biosystems AM1906) to eliminate contaminating DNA. For reverse transcription, 1μg of DNase-treated RNA samples were used for cDNA synthesis using High-Capacity cDNA Reverse Transcription Kit (Thermo Fisher Scientific 4368814). […] Quantitation of 18 relative expression level was analyzed using the ΔΔCT method with HPRT as a reference gene using; statistical analyses of the biological and technical repeats were calculated using StepOne Software (version 2.2.2). […]\nCell seeding and inhibitor treatments were performed in parallel in the same manner as used for the HRE reporter assay (see above). […] Fluorescence signals were measured with an excitation wavelength of 544 nm and emission wavelength of 590 nm using a FLUOstar Omega Microplate Reader (BMG"}, "[2]": {"system": "patients with anaemia secondary to CKD stage 3 or 4", "parameters": "method as in ref 32 (a number printed in a supplementary file, which may have a reference list of its own: not looked up in the article's list)", "details": "6 weeks, cited from earlier work"}, "[3]": {"system": "patients with stable end-stage renal disease (ESRD) treated with haemodialysis", "parameters": "method as in ref 35 (a number printed in a supplementary file, which may have a reference list of its own: not looked up in the article's list)", "details": "cited from earlier work"}, "[4]": {"system": "patients with NDD CKD (stage 3 or 4) and Hb ≤ 10.5 g/dL", "parameters": "method as in ref 36 (a number printed in a supplementary file, which may have a reference list of its own: not looked up in the article's list)", "details": "after 16 weeks of treatment, 143 subjects evaluable for efficacy; cited from earlier work"}, "[5]": {"system": "pre-dialysis subjects already on Darbepoetin treatment", "parameters": "method as in ref 40 (a number printed in a supplementary file, which may have a reference list of its own: not looked up in the article's list)", "details": "16 weeks; cited from earlier work"}, "[6]": {"system": "patients with NDD CKD stage 3-5 and Hb 8.5-11.0 g/dL", "parameters": "method as in ref 42 (a number printed in a supplementary file, which may have a reference list of its own: not looked up in the article's list)", "details": "highest dose (5 mg) daily, over 4 weeks; cited from earlier work"}, "[7]": {"system": "patients with haemodialysis CKD, Hb 9.5-12.0 g/dL", "parameters": "method as in ref 43 (a number printed in a supplementary file, which may have a reference list of its own: not looked up in the article's list)", "details": "cited from earlier work"}},
  "note": "Where two headings read alike, the source gives them in different places.",
  "data": [
    {"smiles": "CC(C)(C)OC(=O)c1ccc(-n2[nH]cc(-n3ccnn3)c2=O)nc1", "note": "[IOX4]", "values": [
      {"measurement": "cell viability after prolonged treatment", "setting": "Hep3b cells; 10 μM, 24, 48, 72 hours", "result": "significant reduction in cell viability"},
      {"measurement": "reduction in cell density versus the other 3 inhibitors (judged visually)", "setting": "Hep3b cells; 10 μM, 72nd hour", "result": "40–50%"}
    ]},
    {"smiles": "O=C(O)CNC(=O)c1ncc(-c2cccc(Cl)c2)cc1O", "note": "[Vadadustat]", "values": [
      {"measurement": "upregulation of assayed HIF target genes", "setting": "[1]", "result": "failed to obviously upregulate assayed HIF target genes"},
      {"measurement": "subjects with Hb increase ≥ 1 g/dL from baseline", "setting": "[2]; 240 mg daily", "result": 31, "unit": "%"},
      {"measurement": "subjects with Hb increase ≥ 1 g/dL from baseline", "setting": "[2]; 370 mg daily", "result": 40, "unit": "%"},
      {"measurement": "subjects with Hb increase ≥ 1 g/dL from baseline", "setting": "[2]; 500 mg daily", "result": 65, "unit": "%"},
      {"measurement": "subjects with Hb increase ≥ 1 g/dL from baseline", "setting": "[2]; 630 mg daily", "result": 78, "unit": "%"}
    ]},
    {"smiles": "Cc1nc(C(=O)NCC(=O)O)c(O)c2ccc(Oc3ccccc3)cc12", "note": "[FG-4592]", "values": [
      {"measurement": "subjects with Hb increase ≥ -0.5 g/dL from baseline", "setting": "[3]; Part 1, 6-week treatment, Roxadustat 1.5-2.0 mg/kg pool versus Epoetin Alfa arm", "result": 79, "unit": "%"},
      {"measurement": "average Roxadustat for Hb level maintenance (mean Hb ≥ 11.0 g/dL during last 4 weeks of treatment)", "setting": "[3]; Part 2, 19-week treatment", "result": "1.68 ± 0.65", "unit": "mg/kg TIW"},
      {"measurement": "subjects with Hb increase ≥ 1 g/dL from baseline and Hb of ≥ 11.0 g/dL (Hb response) by week 17", "setting": "[4]", "result": 91.6, "unit": "%"}
    ]},
    {"smiles": "O=c1c(-n2ccnn2)c[nH]n1-c1cc(N2CCOCC2)ncn1", "note": "[Molidustat]", "values": [
      {"measurement": "mean change in Hb to evaluation period", "setting": "[5]", "result": 0.46, "unit": "g/dL"}
    ]},
    {"smiles": "O=C(O)CNC(=O)C1C(=O)N(C2CCCCC2)C(=O)N(C2CCCCC2)C1=O", "note": "[GSK1278863]", "values": [
      {"measurement": "Hb increase", "setting": "[6]", "result": "~ 1.0 g/dL"},
      {"measurement": "mean Hb increase from baseline at week 4", "setting": "[7]; 4 mg daily", "result": -0.28, "unit": "g/dL"},
      {"measurement": "mean Hb increase from baseline at week 4", "setting": "[7]; 6 mg daily", "result": -0.01, "unit": "g/dL"},
      {"measurement": "mean Hb increase from baseline at week 4", "setting": "[7]; 8 mg daily", "result": 0.54, "unit": "g/dL"},
      {"measurement": "mean Hb increase from baseline at week 4", "setting": "[7]; 10 mg daily", "result": 0.97, "unit": "g/dL"}
    ]}
  ]
}
